In publication PMC4122966, “Novel VCP modulators mitigate major pathologies of rd10, a mouse model of retinitis pigmentosa” (Scientific Reports, 2014):
Several values for one entry are separate records, joined by “and”; a condition that tells them apart may be missing. Equal entries are not always repeated.

Tests used:
[1] = test system: whole cell soluble lysate of neuronally differentiated PC12 cells; experiment: total ATPase activity in clarified whole cell lysates; format: biochemical
Description: Figure 3 Effects of KUSs on ATPase activities, ATP levels, and acetyl-CoA levels. (a) Inhibition of ATPase activity in clarified whole cell lysates by KUS121, KUS187, and KUS94, but not KUS11. Total ATPase activities in clarified whole cell lysates from differentiated PC12 cells were measured in the absence and presence of KUSs. Relative ATPase activities are shown with values in the absence of KUS (D: DMSO) set at 100%. (b) HeLa cells were cultured in medium with low glucose (0.25 g/l) for 20 hours, with or without KUSs, and ATP levels were measured with luciferase assays. (c) HeLa cells were cultured in medium with low glucose (0.25 g/l) for 20 hours, with or without KUSs, and acetyl-CoA levels were measured. * P < 0.05, ** P < 0.01, *** P < 0.001 vs. DMSO control (Dunnett's test, n = 3).
(§1) We measured ATPase activities by modifying the molybdate assay, which was as described previously. In the assay, 1 μg of whole cell soluble lysate of neuronally differentiated PC12 cells, or 500 ng recombinant VCP protein, was incubated in 20 μl of the ATPase assay buffer (20 mM HEPES (pH 7.4), 50 mM KCl, 5 mM MgCl2) with 100 μM [γ-^32P]ATP (18.5 GBq/mmol) (PerkinElmer) at 37°C for 20 min. After incubation, the reaction was quenched by addition of 200 μl of 8% ice-cold trichloroacetic acid solution with 1 mM K2HPO4, and then 50 μl of solution A (3.75% ammonium molybdate, 0.02 M silicotungstic acid in 3 N H2SO4) and 300 μl of n-butyl acetate were added to the reaction. The samples were mixed well and centrifuged at 12,000 × g for 1 min. Then, 200 μl aliquots from the upper organic phases were taken and their radioactivity was determined with a liquid scintillation counter for β-radiation, which determined the amounts of ^32P released.

recombinant VCP = recombinant VCP (Homo sapiens, UniProt P55072); experiment: ATPase activity of recombinant VCP in vitro (modified molybdate assay, [γ-32P]ATP); format: biochemical
Description: as §1

retinal neuronal cells = experiment: retinal organ culture with NMDA insult; format: cell-based, mouse; details: 200 µM NMDA, 50 µM KUS121, 4 days
Description: Supplementary Figure Legends
Supplementary Figure 1 Inhibitory effects of KUS121, KUS187, and DBeQ on the ATPase activity of recombinant VCP purified from E. coli.
Supplementary Figure 2 (a) HeLa cells were cultured in medium with low glucose (0.25 g/l) for 20 hours, with or without KUSs, and ATP levels were measured with luciferase assays. *** P < 0.005 vs. DMSO control (Dunnett’s test, n=3). HG: medium with 4.5 g/l glucose. Error bars indicate SD. (b) HeLa cells were cultured in medium with low glucose (0.2 g/l) for 20 hours, with DMSO or KUSs, and ATP and ADP levels were measured by HPLC. The respective ratios of ATP/ADP are shown. * P < 0.05, ** P < 0.01 vs. DMSO control (Dunnett’s test, n=3). Error bars indicate SD. (c) HeLa cells were cultured in medium without glucose for 6 hours, with (50 µM each KUS, as indicated) or without KUSs, and acetyl-CoA levels were measured by HPLC.
Supplementary Figure 3 Immunohistochemical analyses of retinal neuronal cells.
Retinal sections of 5-month-old C57BL/6 mice were stained with (b) or without (a) an anti-VCP antibody12, developed with diaminobenzidine and counter-stained with hematoxylin (a, b). Note that all retinal neuronal cells highly expressed VCP. GCL: ganglion cell layer, IPL: inner plexiform layer, INL: inner nuclear layer, OPL: outer plexiform layer, ONL: outer nuclear layer, IS: inner segment, OS: outer segment.
Retinas from adult C57BL/6 mice were cultured on porous membrane with 200 µM of NMDA with or without KUS121 (50 µM) for 4 days. (a) HE-stained retinal sections.
In the retina cultured with KUS121, the inner nuclear layer (INL), inner plexiform layer (IPL), ganglion cell layer (GCL), and retinal nerve fiber layer (RNFL) were thicker than that of the retina without KUS121. (b) TUNEL staining of the retinal […]
Supplementary Figure 5 (a) Cross sectional (vertical) images obtained by spectral-domain optical coherence tomography (SD-OCT) in 21-day-old C57BL/6 wild-type (WT) and rd10 mice with or without KUSs. […] (c) The mean amplitude of the a-wave (measured at 25 msec), which is derived from photoreceptors, in KUS-treated […]

HeLa cells = experiment: immunocytochemistry of laminin γ1 aggregation in tunicamycin-treated cells; format: cell-based; details: HeLa, Tm 0.5 μg/ml, 5 hours, 50 μM KUS
Description: Figure 4 KUSs and ATP each prevented a decrease of ATP levels and ameliorated ER stress in tunicamycin-treated cells. (a) Immunocytochemical analyses of HeLa cells by an anti-laminin γ1 antibody. HeLa cells were treated with 0.5 μg/ml of tunicamycin (Tm) for 5 hours in the presence of KUSs (50 μM), ATP (0.1, 0.3, and 1 mM), methylpyruvate (MePyr) (3 and 10 mM), or vehicle alone (DMSO). Then, cells were fixed and subjected to immunocytochemical analyses. Normally growing HeLa cells were also analyzed (Control). Scale bar, 10 μm. (b) Measurements of the relative amounts of ATP per cell. HeLa cells were treated with tunicamycin (Tm, 0.5 μg/ml) for 24 hours in the presence of KUSs (50 μM) or ATP (0.1 and 1 mM), or vehicle alone (DMSO), and were harvested. Then, ATP amounts from 1.5 × 10^5 cells were measured. * P < 0.05, ** P < 0.01. Error bars indicate SD. (c) Western blot analyses on CHOP. HeLa cells were treated with 0.5 μg/ml of tunicamycin for 5 hours in the presence of KUSs (50 μM), ATP (0.1, 0.3, and 1 mM), methylpyruvate (MePyr) (3 and 10 mM), or vehicle alone (-). Then, cells were harvested and subjected to western blot analyses. Actin served as a loading control. Complete scans of the different blots are presented in Supplementary Fig. 9.

Chain of recombinant VCP (P55072 whole entry, species assumed): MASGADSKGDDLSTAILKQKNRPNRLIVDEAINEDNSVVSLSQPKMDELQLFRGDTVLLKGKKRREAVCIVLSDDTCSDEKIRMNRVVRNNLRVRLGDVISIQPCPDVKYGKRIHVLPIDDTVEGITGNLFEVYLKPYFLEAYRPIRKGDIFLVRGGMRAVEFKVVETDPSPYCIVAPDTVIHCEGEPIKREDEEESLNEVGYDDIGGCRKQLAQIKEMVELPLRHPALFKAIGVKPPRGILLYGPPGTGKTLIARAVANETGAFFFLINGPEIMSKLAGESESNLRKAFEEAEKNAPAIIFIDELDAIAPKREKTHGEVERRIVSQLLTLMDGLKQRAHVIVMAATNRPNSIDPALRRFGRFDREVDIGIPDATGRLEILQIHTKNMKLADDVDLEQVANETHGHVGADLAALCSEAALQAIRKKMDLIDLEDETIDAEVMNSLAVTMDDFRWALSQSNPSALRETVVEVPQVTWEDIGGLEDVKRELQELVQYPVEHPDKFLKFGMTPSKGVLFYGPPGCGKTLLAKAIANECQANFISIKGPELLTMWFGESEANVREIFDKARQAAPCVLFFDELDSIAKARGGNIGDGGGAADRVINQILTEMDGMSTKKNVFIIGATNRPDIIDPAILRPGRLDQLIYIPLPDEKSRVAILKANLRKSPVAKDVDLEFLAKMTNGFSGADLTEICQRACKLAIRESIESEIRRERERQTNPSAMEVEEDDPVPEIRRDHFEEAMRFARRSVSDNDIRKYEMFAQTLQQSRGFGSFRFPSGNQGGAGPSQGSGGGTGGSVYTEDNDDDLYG

Cc1cc(F)ccc1-c1ccc(/N=N/c2cc(S(=O)(=O)O)c3ccccc3c2N)cn1 [KUS121]
lowering of total ATPase activity ([1]; 100 nM compound): approximately 20%
lowering of total ATPase activity ([1]; 1 μM compound): ~40%
IC50 (recombinant VCP): 200 to 300 nM and 330 nM
TUNEL-positive apoptotic cells (retinal neuronal cells): More TUNEL-positive apoptotic cells (green) were observed in the retina
thickness of INL, IPL, GCL and RNFL (HE-stained sections) (retinal neuronal cells; vs retina without KUS121): thicker
protection of retinal neuronal cells from NMDA insult (retinal neuronal cells; retinas from adult C57BL/6 mice): protects retinal neuronal cells from NMDA insult
aggregation of laminin γ1 (HeLa cells): clearly prevented the aggregation of laminin γ1
